Results taken from US20200002377A1, “COMPOUNDS USEFUL FOR THE TREATMENT AND/OR CARE OF THE SKIN, HAIR, NAILS AND/OR MUCOUS MEMBRANES” (LUBRIZOL ADVANCED MATERIALS, INC., priority 2016, published 2020).

Assays:
[1] = tested on: Nuclear Factor Kappa B subunit 1 (NFKB1); experiment: Innate immune response gene expression in HEKa, real time PCR array; type: cell-based, human; conditions: 50 μg/ml, 24 h
Protocol: (§1) HEKa cells (Life Technologies) are seeded at 6.0×10^5 cells/well in 6-well plates and incubated in culture medium Epillfe™ with defined Growth Supplement (EDGS, Life Technologies), at 37° C. in a water-saturated atmosphere of 95% air and 5% CO2. After 24 hours of incubation under these conditions, medium is removed and cells are incubated with 50 μg/ml (w/v) of a peptide of the invention (see Table 16) in fresh culture medium keeping two wells where HEKa cells are incubated with medium only (basal conditions) at 37° C. and 5% CO2.
After 24 h of incubation, the cells are lysed directly in the wells following the protocol described on the RNeasy™ Mini kit (Qiagen) according to the manufacturer's protocol. The lysed cells are homogenized and the RNases are inactivated. The genomic DNA is removed from the samples by using gDNA Eliminator spin columns (Qiagen). Then the samples are passed through special RNA binding columns (Qiagen) and, after several microcentrifugation washes to eliminate contaminants and impurities, the purified RNA is eluted with 50 μl of ultrapure water. Quantification and analysis of purity of RNA samples are performed after RNA elution with a biophotometer (Eppendorf). 1 μg of high-quality RNA is retrotranscribed with iScript™ advanced (BioRad) in a final volume of 20 μl·Complete reaction mix is incubated in a thermal cycler (Eppendorf) at 42° C. for 30 minutes, and the reactions are stopped at 85° C. for 5 minutes. Complementary DNA is amplified by qPCR in a real-time PCR thermocycler (BioRad) using SYBR®Green supermix (BioRad) and a customized plate for use with SYBR®Green (BioRad). SYBR®Green binds to double-stranded DNA molecules and emits fluorescence which is quantified and is proportional to the amount of the product in the PCR reaction. Cycling conditions in BioRad CFX96™ instrument are 95° C. for 3 minutes, followed by 40 cycles of denaturing at 95° C. for 5 seconds, annealing and elongation at 60° C. for 30 seconds. GAPDH (Glyceraldehyde 3-phosphate dehydrogenase), TBP (TATA box binding protein) and HRPT1 (hypoxanthine phosphoribosyltransferase 1) are used as endogenous controls. Fold change relative to the expression of the sample genes and reference genes is calculated using normalized expression (ΔΔ(Ct)) method with default threshold values using CFX Manager Software (BioRad).
(§2) Genes analyzed are Chemokine (C-C motif) Ligand 5 (CCL5), Myeloid Differentiation primary response gene 88 (MyD88), Nuclear Factor Kappa B subunit 1 (NFKB1) and interferon Regulatory Factor 3 (IRF3).

[2] = tested on: Staphylococcus epidermidis; experiment: Adherence of Staphylococcus epidermidis in keratinocytes (HaCaT) in competition with S. aureus bioparticles; type: cell-based; conditions: 50 μg/ml, 24 h, basal = 0
Method in brief: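 Treated HaCaT keratinocytes incubated 30 min at 37° C with calcein AM-labelled S. epidermidis plus Alexa Fluor 594 S. aureus bioparticles, then fixed and Hoechst-stained. High-content imaging counts S. epidermidis spots, normalized to nuclei and total bacteria, then as percent of untreated cells.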

[3] = tested on: interferon Regulatory Factor 3 (IRF3); experiment: Innate immune response gene expression in HEKa, real time PCR array; conditions: 50 μg/ml, 24 h
Protocol: as §1
After 24 h of incubation, the cells are lysed directly in the wells following the protocol described on the RNeasy™ Mini kit (Qiagen) according to the manufacturer's protocol. […] Quantification and analysis of purity of RNA samples are performed after RNA elution with a biophotometer (Eppendorf). […] SYBR®Green binds to double-stranded DNA molecules and emits fluorescence which is quantified and is proportional to the amount of the product in the PCR reaction. […] Fold change relative to the expression of the sample genes and reference genes is calculated using normalized expression (ΔΔ(Ct)) method with default threshold values using CFX Manager Software (BioRad).
as §2

[4] = tested on: Reconstructed Human Epidermis (RHE); experiment: Lipidomic profile (UPLC-MS) of in vitro epidermal model; type: cell-based; conditions: 50 μg/ml, 24 hours, vs basal conditions
Protocol: The SkinEthic human tissue models (EpiSkin™) are removed from their agarose-nutrient solution in the multiwell plate immediately after arrival and are placed in a 6-well plate in which each well has previously been filled with SkinEthic Growth Medium (EpiSkin™). After overnight incubation at 37° C., 5% CO2, Reconstructed Human Epidermis (RHE) are treated with 50 μg/ml of peptides Ac-Glu-Glu-Met-Gln-Arg-Arg-NH2 (PEP-1), Ac-Glu-Glu-Met-Gln-Arg-Arg-Ala-NH2 (PEP-2) or Ac-Glu-Glu-Met-Gln-Arg-Arg-Ala-Asp-NH2 (PEP-3) or medium (basal conditions) for 24 hours at 37° C. and 5% CO2. After the 24 hours treatment, RHE are frozen and stored at −20° C. Each treatment is applied to five RHE per condition.
Epidermal membrane model samples are thawed and removed from the inserts using a scalpel and transferred to homogenization tubes. Samples are mixed with sodium chloride (50 mM) and chloroform/methanol (2/1) (v:v) and homogenized. The extraction solvent is spiked with metabolites not detected in unspiked human serum extracts. After homogenizing the samples, extracts are incubated for 1 hour at −20° C. and centrifuged at 18,000×g for 15 minutes. The organic phase is then collected and dried under vacuum. Dried extracts are finally reconstituted in acetonitrile/isopropanol (1/1) (v:v), centrifuged at 18,000×g for 5 minutes and transferred to vials for UPLCs-MS analysis.
All data are processed using the TargetLynx™ application manager for MassLynx™ 4.1 software (Waters Corp., Milford, USA). A set of predefined retention time, mass-to-charge ratio pairs, Rt-m/z, corresponding to metabolites included in the analysis are fed into the program. Associated extracted ion chromatograms (mass tolerance window=0.05 Da) are then peak-detected and noise-reduced in both the LC and MS domains such that only true metabolite related features are processed by the software. A list of chromatographic peak areas is then generated for each sample injection and value respect to basal conditions is calculated.
Average of five values obtained for each peptide in relation to those obtained for basal conditions (without peptide in the medium) are shown in Table 11.

[5] = tested on: tight junction (TJ) barrier in reconstructed human epidermis (RHE); experiment: TJ permeability assay, biotin dye penetration in RHE with SDS; type: cell-based; conditions: peptide 50 μg/ml with 0.02 mg/ml SDS, 24 hours
Protocol: TJ permeability assay using surface biotinylation technique was performed in incubated reconstructed human epidermis (RHE) with EZ-UN Sulfo-NHS-LC-LC-Biotin from the dermal side. The aim of this study is to investigate the ability of peptides of the invention to enhance the barrier function by inhibiting diffusion of the dye through stratum granulosum in presence of sodium dodecyl sulfate (SDS) which causes functional deterioration of TJs.
SkinEthic human tissue models (EpiSkin) are removed from their agarose-nutrient solution in a multiwell plate immediately after arrival and are placed in a 6-well plate in which each well has previously been filled with SkinEthic Growth Medium (EpiSkin). After overnight incubation at 37° C., 5% CO2, tissue models are treated with 50 μg/ml of peptide Ac-Glu-Glu-Met-Gln-Arg-Arg-Ala-NH2 (PEP-2) and a 0.02 mg/ml sodium dodecyl sulfate (SDS, Sigma) solution in growth medium, (1 ml/well). […]
Microscopical observations are performed with a Zeiss fluorescence microscope and photographs of each condition are taken with the associated camera. Fluorescence images of biotin are quantified as the product of its area and the intensity mean value of channel ‘EGFP’ Green (excitation: 488 nm and emission: 509 nm) and normalized by basal conditions. At least 12 representative images from each condition are collected and analyzed with the ZEN software (Zeiss). […]

[6] = tested on: stratum corneum barrier in reconstructed human epidermis (RHE); experiment: Toluidine blue diffusion assay in RHE with SDS; type: cell-based; parameters: key: 4: Strong; 3: Clear; 2: Moderate; 1: Slight; conditions: 24 h, SDS 0.02 mg/ml on top layer, peptide 50 μg/ml + SDS
Protocol: The SkinEthic human tissue models (EpiSkin) are removed from their agarose-nutrient solution in the multiwell plate immediately after arrival and are placed in a 6-well plate in which each well has previously been filled with SkinEthic Growth Medium (EpiSkin). After overnight incubation at 37° C., 5% CO2, the top layer of tissue model is treated with 100 μl of a 50 μg/ml solution of peptide Ac-Glu-Glu-Met-Gln-Arg-Arg-Ala-NH2 (PEP-2) in a 0.02 mg/ml sodium dodecyl sulfate (SDS, Sigma) solution in growth medium and dermal side of tissue model is treated with 1 ml of a 50 μg/ml solution of the same peptide in growth medium. The top layer and dermal side of a tissue model is treated with growth medium as basal condition. In another tissue model, its top layer is treated with a 0.02 mg/ml SDS solution in growth medium while its dermal side is treated with growth medium alone, both in absence of peptide, for its use as a positive control. All incubations are performed at 37° C. and 5% CO2 for 24 h.
After the 24-hours treatment, the top layer of tissue models are further treated with 200 μl of methanol for 2 min at room temperature and, after that, they are rinsed twice with 200 μl of phosphate-buffered saline (PBS, Sigma). […] At least 12 representative images from each condition are collected and scored according to the ranking described in Table 14. […]

[7] = tested on: Tight Junction Protein 1 (TJP1); experiment: Tight junction gene expression in HEKa, real time PCR array; conditions: 50 μg/ml, 24 hours
Protocol: HEKa cells (Life Technologies) are seeded at 6.0×10^5 cells/well in 6-well plates and incubated in culture medium Epilife™ with defined Growth Supplement (EDGS, Life Technologies) at 37° C. in a water-saturated atmosphere of 95% air and 5% CO2. After 24 hours of incubation under these conditions, medium is removed and cells are incubated with 50 μg/ml of a peptide of the invention (see Table 12) in fresh culture medium, except for two wells where HEKa cells are incubated with medium only (basal conditions), at 37° C. and 5% CO2.
After 24 hours of incubation, the cells are lysed directly in the wells following the protocol described on the RNeasy™ Mini kit (Qiagen) according to the manufacturer's protocol. The lysed cells are homogenized and the Rnases are inactivated. The genomic DNA is removed from the samples by using gDNA Eliminator spin columns (Qiagen). […] Quantification and analysis of purity of RNA samples are performed after RNA elution with a biophotometer (Eppendorf). […] SYBR Green binds to double-stranded DNA molecules and emits fluorescence which is quantified and is proportional to the amount of the product in the PCR reaction. […] Fold change relative to the expression of the sample genes and reference genes is calculated using normalized expression (ΔΔ(Ct)) method with default threshold values using CFX Manager Software (BioRad).

## H-EEMQRH-NH2 [PEP-57, H-Glu-Glu-Met-Gln-Arg-His-NH2]
[1]
  NFKB1 fold induction respect to basal conditions: 2.49
[2]
  S. epidermidis (%), normalized percentage respect to basal conditions: 13.57%
[3]
  IRF3 fold induction respect to basal conditions: 2.49

## Ac-EEMQRRA-NH2 [PEP-2, Ac-Glu-Glu-Met-Gln-Arg-Arg-Ala-NH2]
[4]
  Cer_AP48 N-(alpha-hydroxyacyl) phytosphingosines: 1.37 fold change
  Cer_NP48 N-acyl phytosphingosines: 1.24 fold change
  Cer_NP49 N-acyl phytosphingosines: 1.23 fold change
  Cer_NP50 N-acyl phytosphingosines: 1.23 fold change
  Cer_NP51 N-acyl phytosphingosines: 1.19 fold change
  Cer_NS50 N-acyl sphingosines: 1.18 fold change
  Cer_NS51 N-acyl sphingosines: 1.13 fold change
  Cer_NS52 N-acyl sphingosines: 1.37 fold change
  Cer_NdS47 N-acyl dihydrosphingosines: 1.10 fold change
  Cer_NdS48 N-acyl dihydrosphingosines: 1.23 fold change
  Cer_NdS49 N-acyl dihydrosphingosines: 1.46 fold change
  Cer_NdS50 N-acyl dihydrosphingosines: 1.50 fold change
[5]
  penetration of biotin to stratum corneum (result in words): able to strengthen the tight junction (TJ) barrier
[6]
  Total score (Toluidine Blue staining): 2
[1]
  NFKB1 fold induction respect to basal conditions: 2.19
[2]
  S. epidermidis (%), normalized percentage respect to basal conditions: 24.69%

## Ac-EEMQRR-OH [PEP-61, Ac-Glu-Glu-Met-Gln-Arg-Arg-OH]
[1]
  NFKB1 fold induction respect to basal conditions: 1.71
[2]
  S. epidermidis (%), normalized percentage respect to basal conditions: 3.08%
[7]
  TJP1 fold induction respect to basal conditions: 1.71

## Ac-EQMQRR-NH2 [PEP-50, Ac-Glu-Gln-Met-Gln-Arg-Arg-NH2]
[1]
  NFKB1 fold induction respect to basal conditions: 2.25
[2]
  S. epidermidis (%), normalized percentage respect to basal conditions: 4.14%
[3]
  IRF3 fold induction respect to basal conditions: 2.25
